A word on the IC50: it is the concentration that inhibits the measured activity by half. The AC50 is the midpoint of the concentration-response curve, whichever way the signal moves. As a reminder, the EC50 is the concentration giving half of the maximal effect.

Assay [1] concerns the target T1, Tyrosine-protein phosphatase non-receptor type 22 (Homo sapiens, UniProt Q9Y2R2). It is filed as functional.
The next assay addresses Prothrombin (Homo sapiens, UniProt P00734). Kind of assay: Thrombin 1536 HTS Dose Response Confirmation. [Related pubchem assays: 1046 (Thrombin 1536 HTS; hits were confirmed in this assay)]. It is filed as functional.
The target of assay [2] is T2, Replicative DNA helicase DnaB (Mycobacterium tuberculosis, UniProt P9WMR3).
T2 sequence (P9WMR3 whole entry): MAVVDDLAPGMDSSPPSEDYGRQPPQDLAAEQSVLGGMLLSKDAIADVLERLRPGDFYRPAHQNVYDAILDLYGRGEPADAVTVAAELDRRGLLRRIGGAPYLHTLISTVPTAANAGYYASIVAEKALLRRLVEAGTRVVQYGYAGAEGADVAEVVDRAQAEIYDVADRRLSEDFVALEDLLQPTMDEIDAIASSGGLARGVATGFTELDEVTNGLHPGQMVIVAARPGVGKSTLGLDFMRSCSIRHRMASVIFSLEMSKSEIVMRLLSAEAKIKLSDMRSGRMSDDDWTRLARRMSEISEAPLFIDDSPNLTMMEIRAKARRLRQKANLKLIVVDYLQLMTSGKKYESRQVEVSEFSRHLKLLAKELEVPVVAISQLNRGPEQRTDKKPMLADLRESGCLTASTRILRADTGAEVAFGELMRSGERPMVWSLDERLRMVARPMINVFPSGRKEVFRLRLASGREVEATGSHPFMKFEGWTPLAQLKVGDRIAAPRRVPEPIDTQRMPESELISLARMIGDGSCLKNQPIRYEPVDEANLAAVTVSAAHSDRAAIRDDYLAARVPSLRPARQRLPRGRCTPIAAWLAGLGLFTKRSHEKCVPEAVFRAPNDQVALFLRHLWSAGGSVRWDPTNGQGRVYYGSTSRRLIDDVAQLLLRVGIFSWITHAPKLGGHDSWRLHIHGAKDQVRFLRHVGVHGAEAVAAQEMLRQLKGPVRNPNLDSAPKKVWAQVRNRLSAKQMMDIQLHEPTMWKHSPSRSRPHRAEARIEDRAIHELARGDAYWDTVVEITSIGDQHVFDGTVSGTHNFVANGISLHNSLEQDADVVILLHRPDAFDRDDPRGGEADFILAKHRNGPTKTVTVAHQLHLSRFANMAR
Kind of assay: DnaB intein splicing inhibitors, dose response, biochemical, cell-free fluorescence (AID 449749). It is filed as functional.

The target in assay [3] is T1, Tyrosine-protein phosphatase non-receptor type 22. It is filed as functional. This is another data set of the same source.
Another assay concerns the target T3, Protein RecA (Mycobacterium tuberculosis, UniProt P9WHJ3).
T3 sequence (P9WHJ3 whole entry): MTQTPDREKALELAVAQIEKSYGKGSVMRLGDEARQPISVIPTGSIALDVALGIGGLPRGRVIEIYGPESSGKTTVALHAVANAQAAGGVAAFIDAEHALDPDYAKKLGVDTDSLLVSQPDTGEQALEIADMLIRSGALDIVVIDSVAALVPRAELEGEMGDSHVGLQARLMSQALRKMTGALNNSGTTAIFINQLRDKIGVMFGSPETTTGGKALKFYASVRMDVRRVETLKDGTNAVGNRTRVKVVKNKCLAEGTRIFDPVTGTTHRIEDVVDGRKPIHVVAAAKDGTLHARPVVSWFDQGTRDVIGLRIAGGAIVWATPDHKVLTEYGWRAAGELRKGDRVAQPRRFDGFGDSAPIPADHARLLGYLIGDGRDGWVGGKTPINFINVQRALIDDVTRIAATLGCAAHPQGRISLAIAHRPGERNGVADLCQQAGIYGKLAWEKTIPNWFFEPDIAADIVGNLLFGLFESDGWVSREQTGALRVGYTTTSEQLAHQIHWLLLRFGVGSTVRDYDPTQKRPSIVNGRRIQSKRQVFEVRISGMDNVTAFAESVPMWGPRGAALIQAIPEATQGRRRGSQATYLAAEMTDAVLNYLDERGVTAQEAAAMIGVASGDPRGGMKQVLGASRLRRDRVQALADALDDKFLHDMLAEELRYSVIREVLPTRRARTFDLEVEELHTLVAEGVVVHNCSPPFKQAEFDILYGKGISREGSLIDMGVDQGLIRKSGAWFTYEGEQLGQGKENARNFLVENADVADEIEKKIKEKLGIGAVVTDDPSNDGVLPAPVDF
Kind of assay: Fluorescence Cell-Free Homogeneous Dose Retest to Identify Inhibitors of RecA-Intein Splicing Activity. [Related pubchem assays (depositor defined):AID2097, AID2223, AID489010, AID492950]. It is filed as functional.

The target in assay [4] is Tyrosine-protein phosphatase non-receptor type 7 (Homo sapiens, UniProt P35236). Format: functional.
For assay [5], the target named is T4, High affinity choline transporter 1 (Homo sapiens, UniProt Q9GZV3).
T4 sequence (Q9GZV3 whole entry): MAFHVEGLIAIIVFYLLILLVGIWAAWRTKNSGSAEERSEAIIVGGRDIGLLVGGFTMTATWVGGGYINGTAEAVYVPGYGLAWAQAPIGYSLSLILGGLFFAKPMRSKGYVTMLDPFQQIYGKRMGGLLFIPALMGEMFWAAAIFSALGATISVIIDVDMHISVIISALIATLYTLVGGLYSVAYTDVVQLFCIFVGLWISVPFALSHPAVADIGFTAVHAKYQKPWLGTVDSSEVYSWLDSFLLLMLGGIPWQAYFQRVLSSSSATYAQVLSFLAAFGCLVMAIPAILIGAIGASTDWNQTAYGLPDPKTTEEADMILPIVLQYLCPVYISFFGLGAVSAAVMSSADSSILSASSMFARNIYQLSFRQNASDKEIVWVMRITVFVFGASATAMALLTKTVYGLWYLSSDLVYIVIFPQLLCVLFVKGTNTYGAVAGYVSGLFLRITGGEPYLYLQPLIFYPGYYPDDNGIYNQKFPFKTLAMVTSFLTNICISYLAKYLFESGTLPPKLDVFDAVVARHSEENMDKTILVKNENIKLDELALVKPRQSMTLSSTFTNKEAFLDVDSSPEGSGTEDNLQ
Kind of assay: CHT inhibitors, dose response, cell-based, 5-point CRC, membrane potential dye (AID 504840). It is filed as functional.

For assay [6], the target named is Intestinal-type alkaline phosphatase (Homo sapiens, UniProt P09923). Kind of assay: human intestinal alkaline phosphatase activators, dose response, biochemical, luminescence, uHTS hits (AID 463120). It is filed as functional.
Assay [7] has as its target T5, Runt-related transcription factor 1/Core-binding factor subunit beta (Homo sapiens, UniProt Q01196+Q13951). Kind of assay: inhibitors of RUNX1 Runt–CBFb-SMMHC binding, primary screen, biochemical, FRET, Cerulean-Runt, Venus-CBFb-SMMHC, uHTS (AID 1434).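 Also: partner is the CBFb-SMMHC leukemia fusion protein rather than wild-type CBFb.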 It is filed as protein assay.
In assay [8] the target is T5, Runt-related transcription factor 1/Core-binding factor subunit beta. Kind of assay: inhibitors of RUNX1 Runt–CBFb-SMMHC binding, biochemical, TR-FRET (AID 1438). Format: protein assay. In general terms: TR-FRET usually uses a lanthanide donor and a delayed reading to cut background.
Another assay addresses T6, Aminopeptidase N (Plasmodium falciparum FcB1/Columbia, UniProt O96935).
T6 sequence (O96935 whole entry): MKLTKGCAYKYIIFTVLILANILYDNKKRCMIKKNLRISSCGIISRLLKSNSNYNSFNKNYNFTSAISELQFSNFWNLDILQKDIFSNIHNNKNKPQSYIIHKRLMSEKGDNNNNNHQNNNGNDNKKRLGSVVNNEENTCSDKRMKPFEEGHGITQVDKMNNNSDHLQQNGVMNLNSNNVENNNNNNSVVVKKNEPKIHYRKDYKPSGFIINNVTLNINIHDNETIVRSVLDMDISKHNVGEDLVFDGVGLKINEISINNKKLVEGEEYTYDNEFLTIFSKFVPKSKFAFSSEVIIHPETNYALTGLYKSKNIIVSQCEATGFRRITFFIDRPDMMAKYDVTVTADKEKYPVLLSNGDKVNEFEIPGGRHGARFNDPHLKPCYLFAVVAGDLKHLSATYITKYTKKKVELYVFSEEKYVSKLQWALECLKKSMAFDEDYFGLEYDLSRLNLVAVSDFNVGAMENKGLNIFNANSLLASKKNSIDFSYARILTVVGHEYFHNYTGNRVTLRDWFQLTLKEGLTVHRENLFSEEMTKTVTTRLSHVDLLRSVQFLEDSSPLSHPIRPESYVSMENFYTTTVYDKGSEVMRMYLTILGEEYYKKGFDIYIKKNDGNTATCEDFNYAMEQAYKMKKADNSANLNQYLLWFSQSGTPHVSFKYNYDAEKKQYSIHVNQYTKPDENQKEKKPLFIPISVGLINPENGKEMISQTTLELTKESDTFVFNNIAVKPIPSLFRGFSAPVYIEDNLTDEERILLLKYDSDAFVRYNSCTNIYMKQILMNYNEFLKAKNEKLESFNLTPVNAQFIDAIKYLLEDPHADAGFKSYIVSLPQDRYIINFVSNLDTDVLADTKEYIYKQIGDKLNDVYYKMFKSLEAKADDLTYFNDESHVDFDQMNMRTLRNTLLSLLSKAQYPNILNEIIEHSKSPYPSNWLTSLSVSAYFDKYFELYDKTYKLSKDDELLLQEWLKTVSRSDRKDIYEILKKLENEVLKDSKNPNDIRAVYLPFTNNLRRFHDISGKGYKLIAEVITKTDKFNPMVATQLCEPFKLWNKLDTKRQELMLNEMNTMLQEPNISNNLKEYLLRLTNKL
Kind of assay: P. falciparum M1AAP inhibitors, biochemical, fluorogenic H-Leu-NHMec substrate, 1536-well (AID 1445). Also on record: species or system Plasmodium falciparum 3D7, 3D7.

Assay [9] deals with T7, Ubiquitin-conjugating enzyme E2 N (Homo sapiens, UniProt P61088).
T7 sequence (P61088 whole entry): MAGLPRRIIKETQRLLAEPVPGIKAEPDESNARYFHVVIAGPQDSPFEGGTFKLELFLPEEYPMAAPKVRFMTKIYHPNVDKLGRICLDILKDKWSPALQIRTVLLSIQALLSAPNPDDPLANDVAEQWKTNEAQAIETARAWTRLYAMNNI
It is filed as functional.

Assay [10] concerns the target T7, Ubiquitin-conjugating enzyme E2 N. Format: functional. The source holds these as a separate data set.
A further assay addresses T8, Bcl-2-related protein A1 (Mus musculus, UniProt Q07440).
T8 sequence (Q07440 whole entry): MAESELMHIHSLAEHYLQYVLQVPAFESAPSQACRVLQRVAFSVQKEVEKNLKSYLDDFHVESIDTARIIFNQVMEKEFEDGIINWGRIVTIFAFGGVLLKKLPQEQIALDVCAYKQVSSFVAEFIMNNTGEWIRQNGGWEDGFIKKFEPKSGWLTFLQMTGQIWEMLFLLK
It is filed as functional.

Assay [11] addresses G-protein coupled receptor 55 (Homo sapiens, UniProt Q9Y2T6). Kind of assay: SAR Analysis of Selective Antagonists of GPR55 using an Image-Based Assay - Set 4. [Related pubchem assays (depositor defined):AID2013, AID2026]. Format: functional.
Assay [12] addresses T9, Cannabinoid receptor 1 (Homo sapiens, UniProt P21554). Kind of assay: SAR analysis of agonists of the Cannabinoid Receptor 1 using an Image-Based Assay - Set 4. [Related pubchem assays (depositor defined):AID2013, AID2026]. It is filed as functional.
For assay [13], the target named is T10, Cannabinoid receptor 2 (Homo sapiens, UniProt P34972). Kind of assay: SAR analysis of antagonists of the Cannabinoid Receptor 2 using an Image-Based Assay - Set 3. [Related pubchem assays (depositor defined):AID2013, AID2026]. Format: functional.
In assay [14] the target is T11, G-protein coupled receptor 35 (Homo sapiens, UniProt Q9HC97). Kind of assay: SAR analysis of Agonists of the GPR35 Receptor using an Image-Based Assay - Set 4. [Related pubchem assays (depositor defined):AID2013, AID2026]. It is filed as functional.
In assay [15] the target is T9, Cannabinoid receptor 1. Kind of assay: SAR analysis of antagonists of the Cannabinoid Receptor 1 using an Image-Based Assay - Set 4. [Related pubchem assays (depositor defined):AID2013, AID2026]. Format: functional.
Assay [16] has as its target T10, Cannabinoid receptor 2. Kind of assay: SAR analysis of agonists of the Cannabinoid Receptor 2 using an Image-Based Assay - Set 3. [Related pubchem assays (depositor defined):AID2013, AID2026]. Format: functional.
For assay [17], the target named is T11, G-protein coupled receptor 35. Kind of assay: SAR analysis of Antagonists of the GPR35 Receptor using an Image-Based Assay - Set 6. [Related pubchem assays (depositor defined):AID2013, AID2026]. Format: functional.

Activity calls are given as the source filed them. A value given as a limit tells only on which side of the number the result lay.

T9 sequence (P21554 whole entry): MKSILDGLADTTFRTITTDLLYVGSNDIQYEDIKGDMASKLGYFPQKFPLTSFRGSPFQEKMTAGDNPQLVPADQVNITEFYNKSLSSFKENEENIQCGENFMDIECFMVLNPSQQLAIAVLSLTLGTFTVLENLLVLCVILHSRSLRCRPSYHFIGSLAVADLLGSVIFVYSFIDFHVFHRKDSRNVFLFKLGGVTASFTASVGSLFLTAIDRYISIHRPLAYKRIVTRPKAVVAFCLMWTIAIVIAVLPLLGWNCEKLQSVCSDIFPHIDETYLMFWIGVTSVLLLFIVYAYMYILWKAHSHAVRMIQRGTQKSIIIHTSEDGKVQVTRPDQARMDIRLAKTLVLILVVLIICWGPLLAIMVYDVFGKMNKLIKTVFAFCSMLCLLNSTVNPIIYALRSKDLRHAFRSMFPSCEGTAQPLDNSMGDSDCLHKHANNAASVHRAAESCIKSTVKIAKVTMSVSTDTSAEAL
T10 sequence (P34972 whole entry): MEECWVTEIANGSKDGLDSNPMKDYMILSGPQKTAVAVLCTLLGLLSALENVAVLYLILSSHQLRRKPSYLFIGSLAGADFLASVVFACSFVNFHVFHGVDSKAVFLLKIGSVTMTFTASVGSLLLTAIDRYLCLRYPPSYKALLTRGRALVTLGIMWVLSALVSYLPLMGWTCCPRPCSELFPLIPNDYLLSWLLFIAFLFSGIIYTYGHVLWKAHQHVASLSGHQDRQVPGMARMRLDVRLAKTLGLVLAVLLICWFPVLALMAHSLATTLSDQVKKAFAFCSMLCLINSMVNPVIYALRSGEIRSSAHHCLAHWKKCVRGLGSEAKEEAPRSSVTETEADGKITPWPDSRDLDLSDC
T1 sequence (Q9Y2R2 whole entry): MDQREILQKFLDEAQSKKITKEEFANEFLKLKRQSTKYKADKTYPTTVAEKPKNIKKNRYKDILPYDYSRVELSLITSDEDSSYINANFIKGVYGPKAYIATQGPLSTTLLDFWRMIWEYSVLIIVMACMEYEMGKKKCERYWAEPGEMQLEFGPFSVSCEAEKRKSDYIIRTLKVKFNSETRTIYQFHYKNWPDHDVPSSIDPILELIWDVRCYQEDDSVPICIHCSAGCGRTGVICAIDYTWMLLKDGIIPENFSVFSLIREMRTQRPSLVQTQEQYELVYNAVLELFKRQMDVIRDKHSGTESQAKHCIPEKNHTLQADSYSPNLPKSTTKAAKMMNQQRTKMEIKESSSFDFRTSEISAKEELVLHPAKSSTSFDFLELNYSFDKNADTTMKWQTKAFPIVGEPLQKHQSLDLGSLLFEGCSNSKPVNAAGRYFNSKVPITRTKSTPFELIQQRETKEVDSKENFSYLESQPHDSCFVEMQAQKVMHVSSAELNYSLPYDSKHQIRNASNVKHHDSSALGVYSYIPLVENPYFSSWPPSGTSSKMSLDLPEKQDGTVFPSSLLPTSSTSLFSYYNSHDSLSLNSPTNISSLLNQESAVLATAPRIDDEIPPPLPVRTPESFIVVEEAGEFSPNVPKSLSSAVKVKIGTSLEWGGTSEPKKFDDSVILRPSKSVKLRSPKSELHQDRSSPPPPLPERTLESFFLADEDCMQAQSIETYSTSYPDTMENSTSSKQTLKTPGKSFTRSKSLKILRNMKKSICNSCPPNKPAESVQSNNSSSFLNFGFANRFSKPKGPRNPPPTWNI
T11 sequence (Q9HC97 whole entry): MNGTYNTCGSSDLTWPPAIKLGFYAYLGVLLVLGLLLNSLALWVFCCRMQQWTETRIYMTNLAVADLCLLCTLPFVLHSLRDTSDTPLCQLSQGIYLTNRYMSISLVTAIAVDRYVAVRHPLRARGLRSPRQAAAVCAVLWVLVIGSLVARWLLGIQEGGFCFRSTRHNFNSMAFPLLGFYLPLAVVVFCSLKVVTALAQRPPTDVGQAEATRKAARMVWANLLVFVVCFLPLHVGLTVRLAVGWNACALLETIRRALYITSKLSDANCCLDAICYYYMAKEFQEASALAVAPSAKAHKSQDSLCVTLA
T5 sequence (Q01196 whole entry, the tested form may be a part): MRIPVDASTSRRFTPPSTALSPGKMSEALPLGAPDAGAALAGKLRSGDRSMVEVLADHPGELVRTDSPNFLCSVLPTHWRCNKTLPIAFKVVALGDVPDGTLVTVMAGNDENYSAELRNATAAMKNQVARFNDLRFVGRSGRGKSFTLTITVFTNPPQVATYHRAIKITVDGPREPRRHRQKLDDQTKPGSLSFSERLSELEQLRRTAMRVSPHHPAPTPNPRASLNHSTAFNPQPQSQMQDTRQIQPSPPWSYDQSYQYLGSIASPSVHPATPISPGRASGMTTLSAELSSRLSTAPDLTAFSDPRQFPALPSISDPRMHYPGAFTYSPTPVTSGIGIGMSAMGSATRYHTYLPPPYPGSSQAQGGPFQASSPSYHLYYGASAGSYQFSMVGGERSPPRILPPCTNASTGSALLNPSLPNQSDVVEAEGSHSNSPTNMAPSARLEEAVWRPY
T5 sequence (Q13951 whole entry, the tested form may be a part): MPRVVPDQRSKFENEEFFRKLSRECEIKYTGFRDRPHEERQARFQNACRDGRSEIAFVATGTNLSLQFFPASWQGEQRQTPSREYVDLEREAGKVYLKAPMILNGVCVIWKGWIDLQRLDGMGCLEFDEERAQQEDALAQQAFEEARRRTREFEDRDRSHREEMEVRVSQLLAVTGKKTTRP
Sequence of Tyrosine-protein phosphatase non-receptor type 7 (P35236 whole entry): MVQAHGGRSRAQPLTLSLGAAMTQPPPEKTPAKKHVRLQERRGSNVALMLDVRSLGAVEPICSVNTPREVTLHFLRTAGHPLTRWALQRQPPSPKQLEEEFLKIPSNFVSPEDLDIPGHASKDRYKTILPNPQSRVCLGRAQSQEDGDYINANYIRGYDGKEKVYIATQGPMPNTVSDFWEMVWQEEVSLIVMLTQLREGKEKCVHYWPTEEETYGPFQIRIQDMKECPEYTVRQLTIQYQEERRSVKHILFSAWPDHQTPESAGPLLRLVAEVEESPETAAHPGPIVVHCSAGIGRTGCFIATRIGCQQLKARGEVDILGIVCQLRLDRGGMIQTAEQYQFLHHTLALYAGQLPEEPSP
Sequence of G-protein coupled receptor 55 (Q9Y2T6 whole entry): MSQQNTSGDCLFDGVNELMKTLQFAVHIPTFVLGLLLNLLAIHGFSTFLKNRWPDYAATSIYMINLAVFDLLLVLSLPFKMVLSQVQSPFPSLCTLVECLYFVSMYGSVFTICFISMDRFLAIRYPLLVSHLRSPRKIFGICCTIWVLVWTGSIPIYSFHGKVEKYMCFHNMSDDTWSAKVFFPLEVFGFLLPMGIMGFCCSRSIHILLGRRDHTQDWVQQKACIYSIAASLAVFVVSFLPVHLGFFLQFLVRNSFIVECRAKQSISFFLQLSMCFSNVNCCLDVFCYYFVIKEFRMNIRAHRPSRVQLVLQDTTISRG
Sequence of Intestinal-type alkaline phosphatase (P09923 whole entry, the tested form may be a part): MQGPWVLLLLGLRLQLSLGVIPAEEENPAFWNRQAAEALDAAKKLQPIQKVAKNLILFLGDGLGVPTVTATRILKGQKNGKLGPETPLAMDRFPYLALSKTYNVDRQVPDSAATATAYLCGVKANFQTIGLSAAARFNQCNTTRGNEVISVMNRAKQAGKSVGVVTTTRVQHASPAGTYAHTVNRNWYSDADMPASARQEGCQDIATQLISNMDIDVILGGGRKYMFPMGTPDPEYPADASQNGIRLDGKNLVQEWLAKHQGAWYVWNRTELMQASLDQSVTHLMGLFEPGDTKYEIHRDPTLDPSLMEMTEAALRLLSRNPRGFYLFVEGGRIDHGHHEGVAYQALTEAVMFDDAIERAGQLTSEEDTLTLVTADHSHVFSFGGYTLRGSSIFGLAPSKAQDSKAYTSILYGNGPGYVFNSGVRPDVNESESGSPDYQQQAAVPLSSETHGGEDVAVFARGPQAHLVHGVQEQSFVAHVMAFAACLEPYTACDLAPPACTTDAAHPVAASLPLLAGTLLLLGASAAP

With `CSc1nc(-c2ccc(Cl)cc2)nn1C(=O)c1ccco1`, the IC50 in [1] is > 79.4 µM (inactive); at Prothrombin, 2.31 µM (active); in [3] it was > 79.4 µM (inactive); in [4], > 79.4 µM (inactive). Further, in assay [2], the AC50 was 0.387 µM (active). The EC50 on Protein RecA was > 380 µM (inactive).
On to `OC1CN=C2Sc3ccccc3N2C1` (stereo unspecified), for which the IC50 in [5] was 15.1 µM (active). Besides, the EC50 in assay [6] is > 100 µM (inactive).
For `CC1=CC(c2ccc(Cl)cc2)N2NC(NS(=O)(=O)c3ccc(C)cc3)=NC2=N1` (stereo unspecified), the values for the IC50 (in assay [7]; in assay [8]; on Aminopeptidase N) were 23.6 µM (active), 31.5 µM (active) and 104 µM (active), respectively.
As to `Cc1ccc(C(=O)NC(C)c2ccc(-n3ccnc3)cc2)cc1S(=O)(=O)N1CCOCC1` (stereo unspecified), the half-maximal inhibitory concentration (IC50) was 17.3 µM (active) in assay [9], 11.5 µM (active) in assay [10] and > 20 µM (inactive) at Bcl-2-related protein A1.
With `Cc1ccc(-n2cc3c(-c4ccccc4)nnc(C)c3n2)cc1`, the IC50 was 6.89 µM (active) in assay [11], > 32 µM (inactive) on Cannabinoid receptor 2 [13], 8.66 µM (active) on Cannabinoid receptor 1 [15] and > 32 µM (inactive) in [17]. Besides, the EC50 (on Cannabinoid receptor 1 [12]; in [14]; on Cannabinoid receptor 2 [16]) was > 32 µM (inactive) each time.

Values taken from ChEMBL document CHEMBL1201862, “PubChem BioAssay data set” (2004).
